Measurements from US20100029654A1, “CARDIOVASCULAR COMPOSITIONS AND USE OF THE SAME FOR THE TREATMENT OF ALZHEIMER'S DISEASE” (MOUNT SINAI SCHOOL OF MEDICINE, priority 2006, published 2010).
Where a name gives a salt, the structure may show the parent alone. Read-outs that look alike come from different tables or passages of the source.

What was measured:
Aβ1-40 = Aβ1-40 content in conditioned medium of primary cortico-hippocampal neuron cultures from Tg2576 mice (ELISA; primary and secondary dose-response screening); format: cell-based, mouse; conditions: for Ab1-40 (% of ctl) / activity at 100 µM: drug 100 μM; for reduced Aβ1-40: <85% of ctl; for activity at 100 µM: Mus musculus, Neuron, 24 h, read-out: Ab1-40 (% of ctl)
Method: (§1) Potential Aβ-lowering activity was assessed for 150 commercially available cardiovascular drugs using primary cortico-hippocampal neuron cultures derived from embryonic Tg2576 (El 6). […] All cardiovascular reagents were obtained from MicroSource Discovery Systems Inc (Gaylordsville, Conn.). […] Individual cardiovascular agents were applied directly to the culture medium (final 1% DMSO in the culture media). In control studies, parallel Tg2576 primary neuron cultures were treated with vehicle (1% DMSO) alone. The influence of drug treatments in Aβ content in the conditioned medium in treated cultures was assessed by assessing steady state levels of Aβ1-40 and Aβ1-42 in the culture media 24 hours after treatment.
(§2) Embryonic brain tissue was mechanically triturated and centrifuged. Neurons were seeded onto poly-D-lysine-coated 96-well plates at 1.0×10^5 cells per well and cultured in the serum-free chemically-defined medium Neurobasal, supplemented with 2% B27, 0.5 mM L-glutamine and 1% penicillin-streptomycin (Gibco-BRL).
(§3) For primary screening, cultured neurons were treated with 100 μM of drug in duplicates for 16 hours; all drugs were obtained in stock from MicroSource Discovery Systems Inc (Gaylordsville, Conn.). Conditioned medium was collected for Aβ detection using commercially available ELISA kits (BioSource). […] Primary neurons prepared in 96-well plates were treated with 0.1 μM, 1 μM, 10 μM, 50 μM, and 100 μM of each drug in duplicate for ˜16 hours and conditioned medium was collected for Aβ detection.

[1] = tested on: primary cortico-hippocampal neuron cultures; assay: lactate dehydrogenase (LDH) activity assay in parallel neuron cultures
Aβ1-42 = Aβ1-42 content in conditioned medium of primary cortico-hippocampal neuron cultures from Tg2576 mice (ELISA; primary and secondary dose-response screening); format: cell-based, mouse; conditions: for Ab1-42 (% of ctl) / activity at 100 µM: drug 100 μM; for reducing Aβ1-42: <85% of ctl; for activity at 100 µM: Mus musculus, Neuron, 24 h, read-out: Ab1-42 (% of ctl)
Method: as §1, §2, §3

[2] = tested on: primary cortico-hippocampal neuron cultures; assay: MTT in primary screening
[3] = Primary Screening, table sorted by Aβ1-40
[4] = primary screening, Tg2576 neuron cultures, table sorted by Aβ1-42
[5] = primary screening, table sorted by Aβ1-42

SMILES | LDH (% of ctl) [1, 3] | LDH (% of ctl) [1, 5] | MTT (% of ctl) [2, 3] | MTT (% of ctl) [2, 5] | Ab1-40 (% of ctl) (Aβ1-40; [3]) | reduced Aβ1-40 (Aβ1-40; primary screening) | Ab1-40 (% of ctl) (Aβ1-40; [4]) | Ab1-42 (% of ctl) (Aβ1-42; [3]) | reducing Aβ1-42 (Aβ1-42; primary screening) | Ab1-42 (% of ctl) (Aβ1-42; [4]) | activity at 100 µM (Aβ1-40; [3]) [%] | activity at 100 µM (Aβ1-40; [4]) [%] | activity at 100 µM (Aβ1-42; [3]) [%] | activity at 100 µM (Aβ1-42; [4]) [%]
Cn1cnc2c1c(=O)[nH]c(=O)n2C [Theobromine] | 118.3 % of ctl | 118.3 % of ctl | 97.2 % of ctl | 97.2 % of ctl | – | – | – | – | – | – | 101 | 101 | 117 | 117
CC(C)(C)NC[C@H](O)COc1nsnc1N1CCOCC1 [Timolol Maleate] | 104.4 % of ctl | 104.4 % of ctl | 99.2 % of ctl | 99.2 % of ctl | – | – | – | – | – | – | 101 | 101 | 104 | 104
CCOC(=O)C(C)(C)Oc1ccc(Cl)cc1 [Clofibrate] | 110.5 % of ctl | 110.5 % of ctl | 97.9 % of ctl | 97.9 % of ctl | – | – | – | – | – | – | 90.9 | 90.9 | 92.5 | 92.5
C[C@@H]1CCC[C@H](C)N1NC(=O)c1ccc(Cl)c(S(N)(=O)=O)c1 [Clopamide] | 99.9 % of ctl | 99.9 % of ctl | 99.2 % of ctl | 99.2 % of ctl | – | – | – | – | – | – | 92 | 92 | 98.9 | 98.9
CCC(C)(C)C(=O)O[C@H]1C[C@@H](C)C=C2C=C[C@H](C)[C@H](CC[C@@H]3C[C@@H](O)CC(=O)O3)[C@H]21 [Simvastatin] | 129.9 % of ctl | 129.9 % of ctl | 93.4 % of ctl | 93.4 % of ctl | – | – | – | – | – | – | 28 | 28 | 122 | 122
C=C[C@H]1C[N@@]2CC[C@H]1C[C@@H]2[C@@H](O)c1ccnc2ccc(OC)cc12 [Quinidine Gluconate] | 357.6 % of ctl | 357.6 % of ctl | 46.8 % of ctl | 46.8 % of ctl | – | reduced Aβ1-40 | – | – | useful in reducing Aβ1-42 | – | 63.3 | 63.3 | 70 | 70
O=[N+]([O-])O[C@H]1CO[C@H]2[C@@H]1OC[C@H]2O[N+](=O)[O-] [Isosorbide Dinitrate] | 124.6 % of ctl | 124.6 % of ctl | 100.8 % of ctl | 100.8 % of ctl | – | reduced Aβ1-40 | – | – | useful in reducing Aβ1-42 | – | – | – | – | –
COc1cc([S+](C)[O-])ccc1-c1nc2ncccc2[nH]1 (stereo not shown) [Sulmazole] | 111.1 % of ctl | 111.1 % of ctl | 115.0 % of ctl | 115.0 % of ctl | – | – | – | – | – | – | 116 | 116 | 93.2 | 93.2

Continued, in another order:

LDH (% of ctl) [1, 3] | LDH (% of ctl) [1, 5] | MTT (% of ctl) [2, 3] | MTT (% of ctl) [2, 5] | SMILES | Ab1-40 (% of ctl) (Aβ1-40; [3]) | reduced Aβ1-40 (Aβ1-40; primary screening) | Ab1-40 (% of ctl) (Aβ1-40; [4]) | Ab1-42 (% of ctl) (Aβ1-42; [3]) | reducing Aβ1-42 (Aβ1-42; primary screening) | Ab1-42 (% of ctl) (Aβ1-42; [4]) | activity at 100 µM (Aβ1-40; [3]) [%] | activity at 100 µM (Aβ1-40; [4]) [%] | activity at 100 µM (Aβ1-42; [3]) [%] | activity at 100 µM (Aβ1-42; [4]) [%]
99.4 % of ctl | 99.4 % of ctl | 98.4 % of ctl | 98.4 % of ctl | CC(C)c1c(C(=O)Nc2ccccc2)c(-c2ccccc2)c(-c2ccc(F)cc2)n1CC[C@@H](O)C[C@@H](O)CC(=O)[O-].CC(C)c1c(C(=O)Nc2ccccc2)c(-c2ccccc2)c(-c2ccc(F)cc2)n1CC[C@@H](O)C[C@@H](O)CC(=O)[O-].[Ca+2] [Atorvastatin Calcium] | 66.0 % of ctl | reduced Aβ1-40 | 66.0 % of ctl | 76.9 % of ctl | useful in reducing Aβ1-42 | 76.9 % of ctl | – | – | – | –
90.7 % of ctl | 90.7 % of ctl | 90.7 % of ctl | 90.7 % of ctl | CCCc1nc(C(C)(C)O)c(C(=O)OCc2oc(=O)oc2C)n1Cc1ccc(-c2ccccc2-c2nnn[nH]2)cc1 [Olmesartan Medoxomil] | – | reduced Aβ1-40 | – | – | useful in reducing Aβ1-42 | – | 83.9 | 83.9 | 70.7 | 70.7
95.5 % of ctl | 95.5 % of ctl | 91.5 % of ctl | 91.5 % of ctl | CCOC(=O)[C@H](CCc1ccccc1)N[C@@H](C)C(=O)N1[C@H](C(=O)O)C[C@H]2CCCC[C@@H]21 [Trandolapril] | – | – | – | – | – | – | 137 | 137 | 111 | 111
96.4 % of ctl | 96.4 % of ctl | 98.5 % of ctl | 98.5 % of ctl | CC[C@]12CCCN3CCc4c(n(c5ccccc45)[C@@](O)(C(=O)OC)C1)[C@@H]32 [Vincamine] | – | – | – | – | – | – | 99.1 | 99.1 | 104 | 104
101.8 % of ctl | 101.8 % of ctl | 102.4 % of ctl | 102.4 % of ctl | CCOC(=O)[C@H](CCc1ccccc1)N[C@@H](C)C(=O)N1Cc2ccccc2C[C@H]1C(=O)O [Quinapril Hydrochloride] | – | – | – | – | – | – | 119 | 119 | 118 | 118
107.9 % of ctl | 107.9 % of ctl | 108.8 % of ctl | 108.8 % of ctl | O=C1c2ccccc2C(=O)C1c1ccccc1 [Phenindione] | – | – | – | – | – | – | 104 | 104 | 105 | 105
109.3 % of ctl | 109.3 % of ctl | 97.1 % of ctl | 97.1 % of ctl | CC(C)(C)NCC(O)COc1cccc2[nH]c(=O)[nH]c12 (stereo not shown) [2-HYDROXY-4-(2-HYDROXY-3-T-BUTYLAMINOPROPOXY)-BENZIMIDAZOLE] | – | – | – | – | – | – | 99.2 | 99.2 | 104 | 104
171.7 % of ctl | 171.7 % of ctl | 98.9 % of ctl | 98.9 % of ctl | CC(C)NCC(O)COc1cccc2[nH]ccc12 (stereo not shown) [Pindolol] | – | – | – | – | useful in reducing Aβ1-42 | – | 99 | 99 | 46.1 | 46.1
103.3 % of ctl | 103.3 % of ctl | 93.8 % of ctl | 93.8 % of ctl | Nc1nc(N)c2nc(-c3ccccc3)c(N)nc2n1 [Triamterene] | – | – | – | – | useful in reducing Aβ1-42 | – | 85.1 | 85.1 | 64.2 | 64.2
